The values that follow are results of earlier work, collected in patent US20260284070A1, “Ophthalmic Solution of Brinzolamide” (Micro Labs Limited, priority 2023, published 2026).

For the series the following is noted: physiological pH (pH 6.0 to 7.5).

With `CCN[C@H]1CN(CCCOC)S(=O)(=O)c2sc(S(N)(=O)=O)cc21` [Brinzolamide, (R)-(+)-4-Ethylamino-2-(3-methoxypropyl)-3,4-dihydro-2H-thieno[3,2-e]-1,2-thiazine-6-sulfonamide-1,1-dioxide], the Solubility entry is given as “very limited solubility”.
